Results on one compound are retold here after patent publication US20220348868A1, “METHOD OF PRODUCING SKIN-DERIVED PRECURSOR CELLS” (KAO CORPORATION, priority 2014, published 2022).

This test relates to human iPS cell-derived neural crest stem cells. The test is described as follows: Induction of differentiation from human iPS cell-derived neural crest stem cells to SKPs, observed by microphotograph. Type of test: cell-based. The note with it: CHIR99021 added at 0.5 micromolar to 5 micromolars (tested 0, 0.1, 0.5, 3, 5 micromolar). The procedure: Based on the method described in Nature protocols, 5, pp. 688-701 (2010) or Cell reports, 3, pp. 1140-1152 (2013), the iPS cells subjected to the passage culture in Test Example 1 were cultured in a culture medium prepared by adding noggin (catalog number: 6057-NG-100/CF, 500 ng/mL, manufactured by R&D Systems, Inc.) and/or SB431542 (catalog number: 1614, 10 micromolars, manufactured by TOCRIS Bioscience) to a hES medium (−) bFGF for 5 days to 2 weeks to induce differentiation from human iPS cells to neural crest stem cells. The above-described iPS cell-derived neural crest stem cells were cultured in a D-MEM/F12 medium (catalog number: 10565-018, manufactured by Life Technologies Corporation) containing B-27 supplement (catalog number: 17504-044, 2% by mass, manufactured by life Technologies Corporation), EGF (catalog number: 336-EG-200, 20 ng/mL, manufactured by R&D Systems, Inc.), bFGF (catalog number: 064-04541, 40 ng/mL, manufactured by Wako Pure Chemical Industries, Ltd.), penicillin/streptomycin (catalog number: 15140-122, 50U, 50 microgram/mL, manufactured by Life Technologies Corporation) and 0 micromolar to 5 micromolars of CHIR99021 (catalog number 13122, manufactured by Cayman Chemical Company). […]

`Cc1c[nH]c(-c2cnc(NCCNc3ccc(C#N)cn3)nc2-c2ccc(Cl)cc2Cl)n1` [CHIR99021]: under “after selective passage culture of SKPs, FIG. 2, P1”, the “amount of cells differentiated to SKPs, after passage culture (P1)” value is “a larger amount of the cells differentiated to SKPs grew”. For the same compound, the “amount of cells differentiated to SKPs, before passage culture (P0)” value (culture 3 to 5 days, FIG. 2, P0) was “a larger amount of the cells differentiated to SKPs was migrated in a peripheral area of the colony”.
